Experimental data reported in PMC6059979 (European journal of medicinal chemistry, 2018).
Peptide text beside a SMILES is read from it. * marks the point of attachment. Palmitoyl = CCCCCCCCCCCCCCCC(=O)*

Assays:
Type in all cases: cell-based
[1] = system: Methicillin Resistant Staphylococcus aureus (MRSA, ATCC 33591); conditions: ATCC 33591, 18 h
[2] = system: Methicillin Resistant Staphylococcus epidermidis (MRSE, RP62A); conditions: Methicillin Resistant (, RP62A, 18 h)
[3] = system: Vancomycin Resistant Enterococcus faecalis (E. faecalis, ATCC 700802); conditions: ATCC 700802, 18 h
[4] = system: Escherichia coli (E. coli, JM109); conditions: JM109, 18 h
[5] = system: Klebsiella pneumoniae (K. pneumoniae, ATCC 13383); conditions: ATCC 13383, 18 h

MIC MRSA [1]: >25 µg/mL
MIC MRSE [2]: >25 µg/mL
MIC E. faecalis [3]: >25 µg/mL
MIC E. coli [4]: >25 µg/mL
MIC K. pneumoniae [5]: >25 µg/mL
Structure (SMILES): CCCCCCCCCCCCCCCC(=O)N[C@@H](CCCCN)C(=O)N[C@@H](Cc1ccccc1)C(=O)N[C@@H](CCCCN)C(N)=O [C16-K-F-K] (Palmitoyl-Lys-Phe-Lys-NH2)
